This is an account of results in US20210254173A1, “PREDICTIVE 7-GENE ASSAY AND PROGNOSTIC PROTEIN BIOMARKER FOR NON-SMALL CELL LUNG CANCER” (West Virginia University, priority 2018, published 2021).

What all share (assay type): in vivo, human
In one test the test system is FUT7. Nature of the test: Chemoresponse prediction: Cox proportional hazard model using FUT7 ΔCt values in qRT-PCR assays of NSCLC patients. As to the method:
Patient samples. All NSCLC patients were staged I, II, or IIIA at the time of diagnosis. Tumor tissues were collected in surgical resections and were snap-frozen at −80° C. until used for RNA extraction. Tumor cell content was above 50% for qRT-PCR assays. Those with missing AJCC staging information, missing histology, death within 30 days of resection or from other disease conditions were excluded from further analysis. A total of 122 NSCLC patient samples were obtained from Case Western Reserve University (CWRU) Comprehensive Cancer Center. Total RNA of good quality was extracted from 89 tumor specimens. […]
RNA extraction, and quality and concentration assessments. […] The quality and integrity of the RNA, the 28S to 18S ratio, and a visual image of the 28S and 18S bands were evaluated on the 2100 Bioanalyzer (Agilent Technologies, CA). RNA assessed as having good quality from […] tumor samples was included for further analysis. The RNA concentration of each sample was assessed using a Nanodrop-1000 Spectrophotometer (NanoDrop Tech, Germany). […]
(§1) Real-time quantitative RT-PCR low-density arrays. […]
Three hundred thirty seven (337) tumor samples were analyzed with good RNA quality using TaqMan microfluidic low-density array (LDA) plates on an ABI 7900HT Fast RT-PCR instrument (Applied Biosystems). Total RNA samples were analyzed on an Agilent 2100 Bioanalyzer RNA 6000 Nano LabChip. […]

The test system of the next test is ABCC4. Briefly: Chemoresponse prediction: Cox proportional hazard model using ABCC4 ΔCt values in qRT-PCR assays of NSCLC patients. As to the method: (§2) Patient samples. All NSCLC patients were staged I, II, or IIIA at the time of diagnosis. Tumor tissues were collected in surgical resections and were snap-frozen at −80° C. until used for RNA extraction. Tumor cell content was above 50% for qRT-PCR assays. Those with missing AJCC staging information, missing histology, death within 30 days of resection or from other disease conditions were excluded from further analysis. A total of 122 NSCLC patient samples were obtained from Case Western Reserve University (CWRU) Comprehensive Cancer Center. […] The tissue collection in this study was approved by an Institutional Review Board (IRB) at each institution.
RNA extraction, and quality and concentration assessments. Total RNA was extracted from snap-frozen tumor tissues using a RNeasy mini kit according the manufacturer's protocol (Qiagen, USA), followed by elution in 30 μl of RNase-free water and storage at −80° C. The quality and integrity of the RNA, the 28S to 18S ratio, and a visual image of the 28S and 18S bands were evaluated on the 2100 Bioanalyzer (Agilent Technologies, CA). […] The RNA concentration of each sample was assessed using a Nanodrop-1000 Spectrophotometer (NanoDrop Tech, Germany).
Generation of complementary DNA (cDNA). The reverse transcriptase polymerase chain reaction was used to convert the high-quality single-stranded RNA samples to double-stranded cDNA, using an Applied Biosystems GeneAmp® PCR 9700 machine (Foster City, Calif.). For standardization across all samples, one microgram of RNA was used to generate cDNA.
Real-time quantitative RT-PCR low-density arrays. Real-time qRT-PCR assays of independent patient cohorts of NSCLC tumor samples were used to further select biomarkers to form a multi-gene assay from prognostic genes identified from microarray data in our previous studies.
(§3) Three hundred thirty seven (337) tumor samples were analyzed with good RNA quality using TaqMan microfluidic low-density array (LDA) plates on an ABI 7900HT Fast RT-PCR instrument (Applied Biosystems).

The subject of the next test is SLC39A8. Nature of the test: Chemoresponse prediction: Cox proportional hazard model using SLC39A8 ΔCt values in qRT-PCR assays of NSCLC patients. As to conditions: prediction by high SLC39A8 expression. How it is done: as §2
RNA extraction, and quality and concentration assessments. […] The quality and integrity of the RNA, the 28S to 18S ratio, and a visual image of the 28S and 18S bands were evaluated on the 2100 Bioanalyzer (Agilent Technologies, CA). […] The RNA concentration of each sample was assessed using a Nanodrop-1000 Spectrophotometer (NanoDrop Tech, Germany). […]
as §1, §3

The mark [1] stands for this setting: ABCC4 ΔCt as covariate, Cox model, NSCLC patients treated with the named agent(s).

As to `N.N.O=C([O-])C1(C(=O)[O-])CCC1.[Pt+2]` [Carboplatin, carboplatin], the “Hazard ratio of death from disease with 95% CI” value in the test with FUT7 (FUT7 ΔCt as covariate, Cox model, NSCLC patients treated with the named agent) was 1.605. Also, the Chemosensitive/resistant result with FUT7 (prediction by high FUT7 expression) is “Chemosensitive”.

As to `CC(=O)O[C@H]1C(=O)[C@@]2(C)[C@H]([C@H](OC(=O)c3ccccc3)[C@]3(O)C[C@H](OC(=O)[C@H](O)[C@@H](NC(=O)c4ccccc4)c4ccccc4)C(C)=C1C3(C)C)[C@]1(OC(C)=O)CO[C@@H]1C[C@@H]2O` [Taxol, paclitaxel], in the test on ABCC4 (setting [1]), the “Hazard ratio of death from disease with 95% CI” value is 0.403 and the “Hazard ratio of recurrence with 95% CI” value is listed as 0.48. Further, the Chemosensitive/resistant entry with ABCC4 (prediction by high ABCC4 expression, patients treated with the named agent(s)) is recorded as “Chemoresistant”. In addition, in the test with SLC39A8, the Chemosensitive/resistant result is recorded as “Chemoresistant”.

For the compound `Nc1nc2[nH]cc(CCc3ccc(C(=O)N[C@@H](CCC(=O)O)C(=O)O)cc3)c2c(=O)[nH]1` [Alimta, pemetrexed], in the test on SLC39A8, the Chemosensitive/resistant result is “Chemoresistant”.
